Assay results published in patent US9216181B2 (Southwest Research Institute, priority 2011, dated 2015).

What was measured:
BMP-2 [1] = assay: Real time PCR of BMP-2 gene expression in human MSC (Cells-to-Ct); assay type: cell-based; conditions: BMP-2 mRNA, hMSC, 5-10 μM, 24 hours, vs untreated; positive control compounds (Table 1)
C3H10T1/2 cells = assay: Visual observation of morphological differentiation of C3H10T1/2 MSC; assay type: cell-based, mouse; conditions: enhanced medium withdrawn before addition
Experimental: The C3H10T1/2 cells were grown in an enhanced growth medium of BGjb (Irvine Scientific, Santa Ana, Calif.).

BMP2 = assay: Quantitative PCR (TaqMan, ΔΔCt) of BMP2 in human mesenchymal stem cells; assay type: cell-based; conditions: Homo sapiens, Mesenchymal stem cells; BMP2 mRNA, hMSC, 10 μM, vs untreated, 18S reference; positive control compounds (Table 1); read-out: q-PCR Fold increase
BMP-2 [2] = assay: BMP-2 fold change of JHU library compounds, confirmed by qPCR; assay type: cell-based, human; conditions: non-treated = 1.00
Source text: To further verify the technique, a 2T3 mouse pre-osteoblast cell line derived from calvaria courtesy of Dr. Steve Harris, UTHSCSA, was utilized to visually screen the compounds of the BIOMOL library and JHU libraries, purchased from John Hopkins University including 2387 compounds (solution in wells). Specifically, Murine 2T3 were thawed from one frozen cryovial and re-seeded into two T-75 tissue culture flasks grown in Alpha MEM with 10% FBS, Glutamine, and Pen/Strip antibiotics. Cells were incubated in a humidified 37° C. under 5% CO2 for 48 hours or when cells reached 80% confluence. After reaching confluency, the 2T3 were trypsinized and resuspended in pre-warm growth media to a cell density of 5×10^4 cells/mL. Approximately 100 uL of cell suspension was seeded to a 96 well plate to give a final 5,000 cells per well. Plate was incubated overnight at 37° C. and spent media was aspirated and replace with 100 uL of growth media with 5-10 uM of presumptive drug compounds. A set of controls were untreated and treated with 10 uM of Lovastatin to be used as a visual reference morphological screening.
Human mesenchymal stem cells (LONZA, Catalog PT2501) were maintained in Mesenchymal stem cells basal media (MSCBM CAT#PT-3238). Early passage cells were plated in triplicate at 2×10^4 cells/cm^2 using six well tissue culture plates and grown in humidified 5% CO2 at 37° C. for 24 hours. Spent media was replaced by assay media of drugs to be tested in same media as above at 10 μM final concentration. Untreated cells were used as the control group. […] RNA concentration and integrity was assessed by absorbance 260/280 and electrophoresis in 1% Agarose with formaldehyde loading dye. For TaqMan gene expression, cDNA was synthesized from 2 μg of total RNA using the High Capacity cDNA Reverse Transcription Kit (Applied Biosystems, Cat. 4368814). The resulting cDNA were diluted 1:100 for TaqMan and amplified by real-time quantitative PCR. […] A cocktail of universal master mix (Applied Biosystems, 4369016) were prepared individually for both set of primers which contained Taq Polymerase, dNTPs, and buffer. Template cDNA's were added separately to respective individual wells in triplicate samples. The PCR were performed on StepOne Plus Real Time System instrument (Applied Biosystems). The amplification program consisted of 1 cycle of 95° C. with 10 minute hold (hot start) followed by 50 cycles of 95° C. with 15 second annealing hold and 1 minute 60° C. specified acquisition hold. […] Change in gene expression was determined by the expression ΔΔCt relative method.
Included in the tables is the target or common medical use for each compounds.

CC[C@H](C)C(=O)O[C@H]1C[C@@H](C)C=C2C=C[C@H](C)[C@H](CC[C@@H]3C[C@@H](O)CC(=O)O3)[C@H]21 [Lovastatin]
RT PCR Fold increase (BMP-2 [1]): 59.9 fold | morphological changes by visual observation (C3H10T1/2 cells): generated more elongated looking cells with slowed cell proliferation | fold induction at 10 µM (BMP2): 10.7 | fold induction at 10 µM (BMP-2 [2]; Homo sapiens, read-out: Fold change (BMP-2), control compounds at 10 μM): 18 | Fold change (BMP-2) (BMP-2 [2]; JHU library compounds): 182.00 fold
